In US20040006061A1, “Alkoxybenzylamine” (priority 2001, published 2004):

Each compound was assayed on Staphylococcus hominis DSM 20328 (assay: Determination of the Minimum Inhibitory Concentration (MIC value) in microtitre plates, Staphylococcus hominis). Conditions: Staphylococcus hominis, DSM20328, 48 h, Staphylococcus hominis DSM 20328; CASO broth, 48 hours at 37° C.; MIC = ≦20% growth (optical density at 620 nm); read-out: MIC [μg/ml] SH.
Type: cell-based
Experimental: (§1) Determination of the Minimum Inhibitory Concentration (MIC Value) in Microtitre Plates
Casein-soybean flour-peptone broth for preparation of pre-cultures of test bacteria and yeast.
Staphylococcus hominis DSM 20328 […]
(§2) The test substances are pre-dissolved in dimethyl sulfoxide (DMSO) and tested in a dilution series of 1:2.
(§3) The bacteria are cultured overnight in CASO broth and washed off using 10 ml of 0.85% sodium chloride solution (+0.1% Triton X-100).
(§4) All the test organisms are adjusted to an organism count of 1-5×10^6 CFU/ml using 0.85% sodium chloride solution.
(§5) The test substances are pre-pipetted into microtitre plates in amounts of 8 μl per well.
(§6) Pre-diluted test organism suspensions are diluted 1:100 in CASO broth.
(§7) The test batches are incubated for 48 hours at 37° C.
(§8) After incubation, the growth is determined on the basis of the turbidity of the test batches (optical density) at 620 nm in a microplate reader.
(§9) The minimum inhibitory concentration (MIC value) is the concentration of substance at which there is found (compared to the growth of the control) an appreciable inhibition of growth (≦20% growth) of the test organisms.
(§10) One microtitre plate is used for each test organism and substance concentration.
(§11) All the substances are tested in duplicate.
`CCCCCCCCCCCCOc1ccc(CN2CCN(CC)CC2)cc1OC` [Compound of formula (17)] was tested, and the MIC was 7.5 µg/mL.
Compound `CCCCCCOc1ccc(CN(C)CCCC)cc1OCCCCCC` [Compound of formula (89)] has an MIC of 60 µg/mL.
`CCCCCCCCOc1ccc(CN(C)Cc2ccccc2)cc1OC` [Compound of formula (47)] showed an MIC greater than 120 µg/mL.
`CCCOc1ccc(CN(C)CCc2ccccn2)cc1OC` [Compound of formula (55)] gave an MIC greater than 120 µg/mL.
`CCCCCCCCCCCCOc1ccc(CN2CCOCC2)cc1OC` [Compound of formula (8)] gave an MIC greater than 120 µg/mL.
For `CCCCCCCCCCCCOc1ccc(CN(C)Cc2ccccc2)cc1OC` [Compound of formula (15)], the MIC was 15 µg/mL.

Same assay, conditions: Staphylococcus hominis, DSM20328, 48 h, read-out: MIC [μg/ml] SH
`CCCCCCCCOc1ccc(CN2CCNCC2)cc1OC` [Compound of formula (53)] was tested, and the MIC was greater than 120 µg/mL.
With `CCCCCCOc1ccc(CN2CCN(CC)CC2)cc1OC` [Compound of formula (33)] the MIC was greater than 120 µg/mL.

What follows are compounds tested on Escherichia coli NCTC 8196 (assay: Determination of the Minimum Inhibitory Concentration (MIC value) in microtitre plates, Escherichia coli). Conditions: Escherichia coli, NCTC8196, 48 h, Escherichia coli NCTC 8196; CASO broth, 48 hours at 37° C.; MIC = ≦20% growth (optical density at 620 nm); read-out: MIC [μg/ml] EC.
Type: cell-based
Experimental: as §1
Casein-soybean flour-peptone broth for preparation of pre-cultures of test bacteria and yeast. […]
Escherichia coli NCTC 8196
as §2, §3, §4, §5, §6, §7, §8, §9, §10, §11
`CCCCCCCCCCCCOc1ccc(CN2CCN(CC)CC2)cc1OC` [Compound of formula (17)] gave an MIC greater than 120 µg/mL.
`CCCCCCOc1ccc(CN(C)CCCC)cc1OCCCCCC` [Compound of formula (89)] was tested, and the MIC was greater than 120 µg/mL.
`CCCCCCCCOc1ccc(CN(C)Cc2ccccc2)cc1OC` [Compound of formula (47)] gave an MIC greater than 120 µg/mL.
`CCCOc1ccc(CN(C)CCc2ccccn2)cc1OC` [Compound of formula (55)] gave an MIC greater than 120 µg/mL.
For `CCCCCCCCCCCCOc1ccc(CN2CCOCC2)cc1OC` [Compound of formula (8)], the MIC was greater than 120 µg/mL.
In the case of `CCCCCCCCCCCCOc1ccc(CN(C)Cc2ccccc2)cc1OC` [Compound of formula (15)], the MIC is reported as greater than 120 µg/mL.

Same assay, conditions: Escherichia coli, NCTC8196, 48 h, read-out: MIC [μg/ml] EC
`CCCCCCCCOc1ccc(CN2CCNCC2)cc1OC` [Compound of formula (53)] showed an MIC greater than 120 µg/mL.
Compound `CCCCCCOc1ccc(CN2CCN(CC)CC2)cc1OC` [Compound of formula (33)] has an MIC greater than 120 µg/mL.
